Experimental findings from patent US20240308985A1 (Psy Therapeutics, Inc., priority 2021, published 2024) are described below.

Like-named read-outs stand apart in the source and are kept apart here.

The target of the assay is Monoacylglycerol Lipase (MAGL) (Homo sapiens (Human), UniProt Q99685). Description: MAGL inhibition potency (IC50) assay with 4NPA substrate. The assay is classed as biochemical. The text has this:
The potency of certain compounds for inhibiting MAGL were obtained using the following assays. The monoacylglycerol lipase inhibitor screening assay kit from Cayman Chemical was used to measure the MAGL potency for the compounds in Table 6 and Table 7. Cayman's Monoacylglycerol Lipase Inhibitor Screening Assay provides a method for screening human MAGL inhibitors. MAGL hydrolyzes 4-nitrophenylacetate resulting in a yellow product, 4-nitrophenol, with an absorbance of 405-412 nm. MAGL Inhibition was measured by the following assay. Monoacylglycerol Lipase (MAGL) inhibition was measured using recombinant MAGL enzyme (aa 2-303 RBC, internal preparation) and the substrate 4-Nitrophenyl acetate (4NPA) (Sigma-Aldrich, N8130). Hydrolysis of the substrate in the presence of the enzyme was measured by absorbance at 405 nm. 10 μL of assay buffer (10 mM Tris pH 7.5, 1 mM EDTA, 0.9% DMSO) was added to a black 384-well non-binding plate with clear bottom (Greiner, 781906) for each reaction. […] DMSO control wells were included for reference. A 10.8 nM (1.8×) MAGL mix in assay buffer was prepared, with 25 μL added to each reaction well, for a final assay concentration of 6 nM. No enzyme wells received 25 μL of buffer. Plate was incubated at room temperature for 30 minutes. 35 mM solution of 4NPA in methanol was prepared daily. A 4.5×4NPA substrate solution was prepared in assay buffer and 10 μL was added to each reaction well, for a final assay concentration of 0.25 mM. Plate was spun for 1 minute at 1000 rpm before measuring absorbance using a CLARIOstar plate reader (BMG Labtech). A kinetic reading at 405 nm was done every minute for 30 minutes. Data was analyzed using the linear slope of the reaction progress curve and the average of the no-enzyme wells (background) was subtracted from the data. The background-subtracted slope data was converted to % activity using the average of wells with enzyme and DMSO vehicle. IC50s were calculated using GraphPad software (Sigmoidal dose response, variable slope equation). […] Table 8 provides potency measurements of MAGL inhibition measured using the Potency Assay of Example 22 above, with the following modifications described in Table C. [table]

[1] abbreviates: Method 2: Cayman Chemical MAGL enzyme, 10 nM, read-out: MAGL Potency (Detection Method).
Where [2] appears, read: Method 2: Cayman Chemical MAGL enzyme, 10 nM, read-out: Potency (MAGL inhibition).
[3] abbreviates: Methods 2, 3, read-out: MAGL Potency (Detection Method).
Setting [4] is: Method 4: Cayman Chemical MAGL enzyme, 15 nM, read-out: MAGL Potency (Detection Method).

Sequence of Monoacylglycerol Lipase (MAGL) (Q99685 2-303): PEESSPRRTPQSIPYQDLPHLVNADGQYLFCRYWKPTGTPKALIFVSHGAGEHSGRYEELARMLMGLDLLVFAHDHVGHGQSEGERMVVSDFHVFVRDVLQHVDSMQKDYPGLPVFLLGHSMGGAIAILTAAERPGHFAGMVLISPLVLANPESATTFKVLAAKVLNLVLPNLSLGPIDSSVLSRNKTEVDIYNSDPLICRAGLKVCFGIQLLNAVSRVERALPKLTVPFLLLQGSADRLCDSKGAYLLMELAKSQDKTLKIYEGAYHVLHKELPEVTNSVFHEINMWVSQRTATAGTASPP

Take `Cc1cnn(C2CC3(C2)CN(C(=O)c2cc(O)ccc2F)C3)c1-c1ccccc1C(F)(F)F` (atropisomer, axis not shown; (M)) [Compound 410, 4-fluoro-3-{6-[(4M)-4-methyl-5-[2-(trifluoromethyl)phenyl]-1H-pyrazol-1-yl]-2-azaspiro[3.3]heptane-2-carbonyl}phenol]: the IC50 (Method 6: Reaction Biology MAGL enzyme, 6 nM, read-out: MAGL Potency (Detection Method)) lay in the range of 50 to 150 nM.

For `Cc1cc(C2=CC3(C2)CN(C(=O)c2cc(O)ccc2F)C3)n(-c2ccccc2C)n1` [Compound 120, (2-fluoro-5-hydroxyphenyl)(6-(3-methyl-1-(o-tolyl)-1H-pyrazol-5-yl)-2-azaspiro[3.3]hept-5-en-2-yl)methanone], the IC50 under setting [1] lay in the range of 150 to 500 nM. As to `Cc1cc(C2CC3(C2)CN(C(=O)c2cc(O)c(F)cc2F)C3)n(-c2ccccc2C)n1` [Compound 126, (2,4-difluoro-5-hydroxyphenyl)(6-(3-methyl-1-(o-tolyl)-1H-pyrazol-5-yl)-2-azaspiro[3.3]heptan-2-yl)methanone], the IC50 (Methods 1, 2, 3, read-out: MAGL Potency (Detection Method)) was < 50 nM. Take `Cc1cc(C2CC3(C2)CN(C(=O)c2cc(O)ccc2C#N)C3)n(-c2ccccc2C)n1` [Compound 128, 4-hydroxy-2-({6-[3-methyl-1-(o-tolyl)-5-pyrazolyl]-2-aza-2-spiro[3.3]heptyl}carbonyl)benzonitrile]: the IC50 (Methods 1, 2, read-out: MAGL Potency (Detection Method)) is < 50 nM. `Cc1cc(C2CC3(C2)CN(C(=O)c2cc(O)ccc2Cl)C3)n(-c2ccccc2C)n1` [Compound 140, (2-chloro-5-hydroxyphenyl) (6-(3-methyl-1-(o-tolyl)-1H-pyrazol-5-yl)-2-azaspiro [3.3]heptan-2-yl) methanone]: under setting [1], the IC50 is 50 to 150 nM. As to `Cc1cc(C2CC3(C2)CN(C(=O)c2ccc(F)c(O)c2)C3)n(-c2ccccc2C)n1` [Compound 141, (4-fluoro-3-hydroxyphenyl)(6-(3-methyl-1-(o-tolyl)-1H-pyrazol-5-yl)-2-azaspiro[3.3]heptan-2-yl)methanone], the IC50 was 50 to 150 nM (Method 1: Reaction Biology MAGL enzyme, 6 nM, read-out: MAGL Potency (Detection Method)) and 150 to 500 nM under setting [1]. In the case of `COc1cc(F)ccc1C(=O)N1CC2(CC(c3cc(C)nn3-c3ccccc3C)C2)C1` [Compound 142, (4-fluoro-2-methoxyphenyl)(6-(3-methyl-1-(o-tolyl)-1H-pyrazol-5-yl)-2-azaspiro[3.3]heptan-2-yl)methanone], the IC50 under setting [1] fell in the range of 500 to 1000 nM. With `COc1ccccc1C(=O)N1CC2(CC(c3cc(C)nn3-c3ccccc3C)C2)C1` [Compound 143, (2-methoxyphenyl)(6-(3-methyl-1-(o-tolyl)-1H-pyrazol-5-yl)-2-azaspiro[3.3]heptan-2-yl)methanone], the IC50 under setting [1] lay within 1000 to 5100 nM. Regarding `Cc1cc(C2CC3(C2)CN(C(=N)c2cc(O)ccc2F)C3)n(-c2ccccc2C)n1` [Compound 144], the IC50 under setting [2] was > 10000 nM. Take `CCOc1ccccc1C(=O)N1CC2(CC(c3cc(C)nn3-c3ccccc3C)C2)C1` [Compound 145, (2-ethoxyphenyl)(6-(3-methyl-1-(o-tolyl)-1H-pyrazol-5-yl)-2-azaspiro[3.3]heptan-2-yl)methanone]: the IC50 under setting [1] lay in the range of 1000 to 5100 nM. For `CCOc1cc(F)ccc1C(=O)N1CC2(CC(c3cc(C)nn3-c3ccccc3C)C2)C1` [Compound 146, (2-ethoxy-4-fluorophenyl){6-[3-methyl-1-(o-tolyl)-5-pyrazolyl]-2-aza-2-spiro[3.3]heptyl}methanone], the IC50 by setting is: under setting [1], 150 to 500 nM; (Method 3: Reaction Biology MAGL enzyme, 10 nM, read-out: MAGL Potency (Detection Method)) < 50 nM. With `COc1cc(F)ccc1CN1CC2(CC(c3cc(C)nn3-c3ccccc3C)C2)C1` [Compound 149], the IC50 under setting [2] was > 10000 nM.

For the compound `Cc1cc(C2CC3(C2)CN(Cc2cc(O)ccc2F)C3)n(-c2ccccc2C)n1` [Compound 150], the IC50 (read-out: Potency (MAGL inhibition)) is > 10000 nM. Consider `Cc1cc(C2CC3(C2)CN(C2CCOc4ccccc42)C3)n(-c2ccccc2C)n1` (centres unmarked) [Compound 152], for which the IC50 under setting [2] is > 10000 nM. Consider `Cc1cc(C2CC3(C2)CN([C@@H]2CCOc4ccccc42)C3)n(-c2ccccc2C)n1` [Compound 153], for which the IC50 under setting [2] was > 10000 nM. As to `Cc1cc(C2CC3(C2)CN([C@H]2COc4ccccc42)C3)n(-c2ccccc2C)n1` [Compound 154], the IC50 under setting [2] was > 10000 nM. Same read-out and setting: the figure for `Cc1cc(C2CC3(C2)CN([C@@H]2COc4ccccc42)C3)n(-c2ccccc2C)n1` [Compound 155] is > 10000 nM. Take `Cc1cc(C2CC3(C2)CN(C(=O)c2ccc(F)cc2OC(C)C)C3)n(-c2ccccc2C)n1` [Compound 177, (4-fluoro-2-isopropoxyphenyl)(6-(3-methyl-1-(o-tolyl)-1H-pyrazol-5-yl)-2-azaspiro[3.3]heptan-2-yl)methanone]: under setting [1], the IC50 fell in the range of 50 to 150 nM. Take `Cc1cc(C2CC3(C2)CN(C(=O)c2ccoc2)C3)n(-c2ccccc2C)n1` [Compound 179]: the IC50 under setting [2] is > 10000 nM.

With `Cc1cc(C2CC3(C2)CN(C(=O)c2cccn2C)C3)n(-c2ccccc2C)n1` [Compound 181], the IC50 under setting [2] is > 10000 nM.

For `Cc1cc(C2CC3(C2)CN(C(=O)c2ccn(C)c2)C3)n(-c2ccccc2C)n1` [Compound 182], under setting [2], the IC50 was > 10000 nM. On the same count and under the same terms, to `Cc1cc(C2CC3(C2)CN(C(=O)c2ccc[nH]2)C3)n(-c2ccccc2C)n1` [Compound 183] belongs > 10000 nM.

Turning to `Cc1cc(C2CC3(C2)CN(C(=O)c2cc[nH]c2)C3)n(-c2ccccc2C)n1` [Compound 184], the IC50 under setting [2] is > 10000 nM. Regarding `Cc1ccccc1N(C)C(=O)C1CC2(C1)CN(C(=O)c1cc(O)ccc1F)C2` [Compound 185, 2-(2-Fluoro-5-hydroxybenzoyl)-N-Methyl-N-(o-tolyl)-2-azaspiro [3.3]heptane-6-carboxamide], the IC50 under setting [3] was in the range of 50 to 150 nM.

For `Cc1ccccc1NC(=O)C1CC2(C1)CN(C(=O)c1cc(O)ccc1F)C2` [Compound 186, N-o-tolyl-2-(2-fluoro-5-hydroxybenzoyl)-2-aza-6-spiro[3.3]heptanecarboxamide], under setting [1], the IC50 lay within 1000 to 5100 nM. As for `CCOc1cc(F)ccc1C(=O)N1CC2(CC(C(=O)N(C)c3ccccc3C)C2)C1` [Compound 187, 2-(2-Ethoxy-4-fluorobenzoyl)-N-Methyl-N-(o-tolyl)-2-azaspiro [3.3] heptane-6-carboxamide], the IC50 under setting [1] fell in the range of 150 to 500 nM and the IC50 under setting [3] was in the range of 1000 to 5100 nM. For `CCOc1cc(F)ccc1C(=O)N1CC2(CC(C(=O)Nc3ccccc3C)C2)C1` [Compound 188], the IC50 under setting [2] was > 10000 nM.

Consider `CCOc1cc(F)ccc1C(=O)N1CC2(CC(C(=O)N(C)c3cccnc3C)C2)C1` [Compound 198], for which the IC50 (Method 4: Cayman Chemical MAGL enzyme, 15 nM, read-out: Potency (MAGL inhibition)) was > 10000 nM. As to `CCOc1cc(F)ccc1C(=O)N1CC2(CC(C(=O)N(CC)c3ccccc3C)C2)C1` [Compound 203, N-ethyl-N-o-tolyl-2-(2-ethoxy-4-fluorobenzoyl)-2-aza-6-spiro[3.3]heptanecarboxamide], under setting [4], the IC50 lay in the range of 150 to 500 nM. As for `CCOc1cc(F)ccc1C(=O)N1CC2(CC(C(=O)N(C)c3ccccc3C(C)C)C2)C1` [Compound 205, N-o-cumenyl-N-methyl-2-(2-ethoxy-4-fluorobenzoyl)-2-aza-6-spiro[3.3]heptanccarboxamide], under setting [4], the IC50 was in the range of 500 to 1000 nM. Consider `CCOc1cc(F)ccc1C(=O)N1CC2(CC(C(=O)N(C)c3ccccc3Cl)C2)C1` [Compound 206, N-o-chlorophenyl-N-methyl-2-(2-ethoxy-4-fluorobenzoyl)-2-aza-6-spiro[3.3]heptanecarboxamide], for which the IC50 under setting [4] was 1000 to 5100 nM. Take `Cc1cc(C2CC3(C2)CN(C(=O)c2cc(O)ccc2F)C3)n(-c2cc(F)ccc2C)n1` [Compound 365, (2-fluoro-5-hydroxyphenyl){6-[1-(5-fluoro-2-tolyl)-3-methyl-5-pyrazolyl]-2-aza-2-spiro[3.3]heptyl}methanone]: the IC50 (Method 14: Reaction Biology MAGL enzyme, 6 nM, read-out: MAGL Potency (Detection Method)) was < 50 nM.
